# Experimental data as given in patent US20260250312A1, “ANTIBACTERIAL COMPOUNDS ELIMINATING DORMANT BACTERIAL CELLS” (UNIVERSITÉ D'AIX-MARSEILLE, priority 2022, published 2026).
# Where “and” joins values, the source holds several entries; their conditions need not be identical. Identical values can stand only once. Like-named read-outs stand apart in the source and are kept apart here. Marks after values point to notes of the source that are not given here.
# Tests used:
# [1] = system: Staphylococcus aureus (ATCC25923); test: Microdilution MIC assay (CLSI-based), S. aureus; assay type: cell-based; conditions: 20 hours incubation at 35-37° C., MHB; for MIC: Staphylococcus aureus, ATCC25923, 20 h, read-out: Minimum inhibitory concentration S. aureus ATCC25923
# Summary of the method: (§1)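 Broth microdilution per modified CLSI guidelines in Mueller Hinton broth, 200 μL, inoculum ca. 5×10^5 CFU/mL; compounds tested as salts, twofold dilutions from 0.2 mg/mL, in triplicate. MIC determined from OD at 620 nm after incubation.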
# [2] = system: Enterococcus faecalis (ATCC29212); test: Microdilution MIC assay (CLSI-based), E. faecalis; assay type: cell-based; conditions: 20 hours incubation at 35-37° C., MHB; for MIC: Enterococcus faecalis, ATCC29212, 20 h, read-out: Minimum inhibitory concentration E. faecalis ATCC29212
# Summary of the method: as §1
# [3] = system: Escherichia coli (ATCC28922); test: Microdilution MIC assay (CLSI-based), E. coli; assay type: cell-based; conditions: 20 hours incubation at 35-37° C., MHB; for MIC: read-out: Minimum inhibitory concentration E. coli ATCC28922
# Summary of the method: as §1
# [4] = system: Pseudomonas aeruginosa (ATCC27853); test: Microdilution MIC assay (CLSI-based), P. aeruginosa; assay type: cell-based; conditions: 20 hours incubation at 35-37° C., MHB; for MIC: Pseudomonas aeruginosa, ATCC27853, 20 h, read-out: Minimum inhibitory concentration P. aeruginosa ATCC27853
# Summary of the method: as §1
# [5] = system: CHO-K1 cells; test: WST1 cytotoxicity test; assay type: cell-based, Chinese hamster
# Summary of the method: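 CHO-K1 cells pre-cultured 24 h, then exposed 24 h at 37 °C to increasing compound concentrations. Viability read as WST-1 formazan absorbance at 450 nm after 20 min; dose-response fitted by nonlinear regression.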
# [6] = system: Escherichia coli (E. coli) persister cells; test: Anti-persister activity test, persister cells; assay type: cell-based; conditions: for anti-persister activity (in words): E. coli persister cells, Table 8 conditions; for viability at 125 µM: read-out: Persister cell survival rate 96 h, concentration used 125 μM, 4 hours treatment
# Description: (§2) Anti-persister activity test: Escherichia coli (E. coli) persister cells were generated and isolated as described by MARQUES, C. N. H. et al. (Applied and Environmental Microbiology 2014, Vol. 80, No. 22, pp. 6976-6991). E. coli persister cells were compared to E. coli non-persister cells. 1 mL persister or non-persister bacteria culture was added in a 1.5 mL microtube with each of the compounds to be tested or ciprofloxacin as a […], and incubated at 37° C. with 160 rpm shaking for 4 hours. After 4 hours treatment with the compounds, the microtubes were centrifuged at 3,500g for 5 minutes and the pellets were resuspended in 1 mL of fresh drug free RM broth (10 g/L M9 salt, 2% casamino acids, 1 mM MgCl2, 1% glycerol). Resuspended bacteria were then plated over LB agar plates and incubated at 37° C. Bacterial colonies were enumerated after 24, 48 and 96 hours to estimate the survival rate.
# [7] = system: E. coli non-persister cells; test: Anti-persister activity test, non-persister cells; assay type: cell-based, Escherichia coli; conditions: for viability at 125 µM: read-out: Non-persister cell survival rate 96 h, concentration used 125 μM, 4 hours treatment
# Description: as §2
# [8] = Escherichia coli, ATCC28922, 20 h
# [9] = Cricetulus griseus, CHO-K1, 24 h, WST1, 24 hours at 37° C., read-out: IC50 CHO
# [10] = Cricetulus griseus, CHO-K1, WST1, as printed in Table 8, read-out: Toxicity IC50 CHO
# [11] = WST1, 24 hours at 37° C., read-out: IC50 CHO
# [12] = WST1, Table 8, read-out: Toxicity IC50 CHO
# [13] = concentration used 125 μM, 4 hours treatment
Structure (SMILES),MIC [1],MIC [2],"MIC [3, 8]",MIC [4],"IC50 [5, 9]",anti-persister activity (in words) [6],Minimum inhibitory concentration E. coli ATCC28922 [3],Minimum inhibitory concentration P. aeruginosa ATCC27853 [4],further results
"COC(=O)[C@H](Cc1ccccc1)NC(=O)CC[C@@H](C)[C@H]1CCC2C3C(CC[C@@]21C)[C@@]1(C)CC[C@H](NCCCNCCCCNCCCN)C[C@H]1C[C@H]3O (stereo partly drawn) [Compound S014, methyl ((4R)-4-((3S,5S,7R,10S,13R,17R)-3-((3-((4-((3-aminopropyl)amino)butyl)amino)propyl)amino)-7-hydroxy-10,13-dimethylhexadecahydro-1H-cyclopenta[a]phenanthren-17-yl)pentanoyl)-L-phenylalaninate]",3.12 µM and 2 µg/mL,12.5 µM and 8 µg/mL,6.25 µM and 4 µg/mL,25 µM and 16 µg/mL,77.6 µM and 57.3 µg/mL,both anti-persister and anti-bacterial activities,,,"toxicity results (in words) [5]: good toxicity results; IC50 [5, 10]: 77.6 µM; viability at 125 µM ([6]; Escherichia coli, 4 h): 0%; viability at 125 µM ([7]; Escherichia coli, 4 h): 0%"
"COC(=O)[C@H](NC(=O)CC[C@@H](C)[C@H]1CCC2C3C(CC[C@@]21C)[C@@]1(C)CC[C@H](NCCCNCCCN)C[C@H]1C[C@H]3O)C(C)C (stereo partly drawn) [Compound S048, methyl ((4R)-4-((3S,5S,7R,10S,13R,17R)-3-((3-((3-aminopropyl)amino)propyl)amino)-7-hydroxy-10,13-dimethylhexadecahydro-1H-cyclopenta[a]phenanthren-17-yl)pentanoyl)-D-valinate]",,,,,,both anti-persister and anti-bacterial activities,6.25* μM and 4* μg/mL,12.5* μM and 8* μg/mL,"Minimum inhibitory concentration S. aureus ATCC25923 [1]: 6.25* μM and 4* μg/mL; Minimum inhibitory concentration E. faecalis ATCC29212 [2]: 25* μM and 16* μg/mL; IC50 CHO ([5]; WST1, 24 hours at 37° C.): 60.09 µg/mL; IC50 [5, 11]: 97.1 µM; IC50 [5, 12]: 97.1 µM; Persister cell survival rate 96 h [6, 13]: 0.0%; Non-persister cell survival rate 96 h [7, 13]: 0.0%"
"COC(=O)[C@H](NC(=O)CC[C@@H](C)[C@H]1CCC2C3C(C[C@H](O)[C@@]21C)[C@@]1(C)CC[C@H](NCCCN(CCCN)CCCN)C[C@H]1C[C@H]3O)C(C)C (stereo partly drawn) [Compound S060, methyl ((4R)-4-((3S,5S,7R,10S,12S,13R,17R)-3-((3-(bis(3-aminopropyl)amino)propyl)amino)-7,12-dihydroxy-10,13-dimethylhexadecahydro-1H-cyclopenta[a]phenanthren-17-yl)pentanoyl)-D-valinate]",40 µM and 32 µg/mL,160 µM and 128 µg/mL,160 µM and 128 µg/mL,160 µM and 128 µg/mL,186 µM and 129 µg/mL,very potent anti-persister activity,,,"toxicity results (in words) [5]: good toxicity results; IC50 [5, 10]: 186 µM; viability at 250 µM ([6]; Escherichia coli, 4 h, read-out: Persister cell survival rate 96 h, concentration used 250 μM, 4 hours treatment): 2%; viability at 250 µM ([7]; Escherichia coli, 4 h, read-out: Non-persister cell survival rate 96 h, concentration used 250 μM, 4 hours treatment): 3.8%"
"COC(=O)[C@H](NC(=O)CC[C@@H](C)[C@H]1CCC2C3C(CC[C@@]21C)[C@@]1(C)CC[C@H](NCCCNCCCN)C[C@H]1C[C@H]3O)C(C)C (stereo partly drawn) [Compound S047, methyl ((4R)-4-((3S,5S,7R,10S,13R,17R)-3-((3-((3-aminopropyl)amino)propyl)amino)-7-hydroxy-10,13-dimethylhexadecahydro-1H-cyclopenta[a]phenanthren-17-yl)pentanoyl)-D-valinate]",6.25 µM and 4 µg/mL,,,,,both anti-persister and anti-bacterial activities,12.5* μM and 8* μg/mL,12.5* μM and 8* μg/mL,"Minimum inhibitory concentration E. faecalis ATCC29212 [2]: 12.5* μM and 8* μg/mL; IC50 CHO ([5]; WST1, 24 hours at 37° C.): 57.61 µg/mL; IC50 [5, 11]: 93.1 µM; IC50 [5, 12]: 93.1 µM; viability at 125 µM ([6]; Escherichia coli, 4 h): 0%; viability at 125 µM ([7]; Escherichia coli, 4 h): 0%"
"COC(=O)[C@H](Cc1ccccc1)NC(=O)CC[C@@H](C)[C@H]1CCC2C3C(CC[C@@]21C)[C@@]1(C)CC[C@H](NCCCN(CCCN)CCCN)C[C@H]1C[C@H]3O (stereo partly drawn) [Compound S037, methyl ((4R)-4-((3S,5S,7R,10S,13R,17R)-3-((3-(bis(3-aminopropyl)amino)propyl)amino)-7-hydroxy-10,13-dimethylhexadecahydro-1H-cyclopenta[a]phenanthren-17-yl)pentanoyl)-L-phenylalaninate]",6.25 µM and 4 µg/mL,6.25 µM and 4 µg/mL,6.25 µM and 4 µg/mL,25 µM and 16 µg/mL,127 µM and 91.7 µg/mL,,,,
"COC(=O)[C@H](Cc1ccccc1)NC(=O)CC[C@@H](C)[C@H]1CCC2C3C(CC[C@@]21C)[C@@]1(C)CC[C@H](NCCCNCCNCCCN)C[C@H]1C[C@H]3O (stereo partly drawn) [Compound S029, methyl ((4R)-4-((3S,5S,7R,10S,13R,17R)-3-((3-((2-((3-aminopropyl)amino)ethyl)amino)propyl)amino)-7-hydroxy-10,13-dimethylhexadecahydro-1H-cyclopenta[a]phenanthren-17-yl)pentanoyl)-L-phenylalaninate]",12.5 µM and 8 µg/mL,12.5 µM and 8 µg/mL,50 µM and 32 µg/mL,50 µM and 32 µg/mL,47.8 µM and 33.9 µg/mL,,,,
"CC[C@@H](C)[C@H](NC(=O)CC[C@@H](C)[C@H]1CCC2C3C(CC[C@@]21C)[C@@]1(C)CC[C@H](NCCCNCCCN)C[C@H]1C[C@H]3O)C(=O)OC (stereo partly drawn) [Compound S050, methyl (2S,3R)-2-((4R)-4-((3S,5S,7R,10S,13R,17R)-3-((3-((3-aminopropyl)amino)propyl)amino)-7-hydroxy-10,13-dimethylhexadecahydro-1H-cyclopenta[a]phenanthren-17-yl)pentanamido)-3-methylpentanoate]",3.12 µM and 2 µg/mL,25 µM and 16 µg/mL,12.5 µM and 8 µg/mL,50 µM and 32 µg/mL,10.5 µM and 6.63 µg/mL,,,,
"COC(=O)CNC(=O)CC[C@@H](C)[C@H]1CCC2C3C(CC[C@@]21C)[C@@]1(C)CC[C@H](NCCCNCCCCNCCCN)C[C@H]1C[C@H]3O (stereo partly drawn) [Compound S004, methyl ((4R)-4-((3S,5S,7R,10S,13R,17R)-3-((3-((4-((3-aminopropyl)amino)butyl)amino)propyl)amino)-7-hydroxy-10,13-dimethylhexadecahydro-1H-cyclopenta[a]phenanthren-17-yl)pentanoyl)glycinate]",6.25 µM and 4 µg/mL,50 µM and 32 µg/mL,,,51.7 µM and 33.5 µg/mL,,64 µg/mL,>200* μM and >128* μg/mL,MIC [3]: 100 µM
"O=C(O)c1cn(C2CC2)c2cc(N3CCNCC3)c(F)cc2c1=O [Ciprofloxacin, ciprofloxacin, reference compound]",,,,,,,,,"viability at 200 µM ([6]; Escherichia coli, concentration used 200 μM, 4 hours treatment, read-out: Persister cell survival rate 96 h): 5.6%; viability at 200 µM ([7]; Escherichia coli, concentration used 200 μM, 4 hours treatment, read-out: Non-persister cell survival rate 96 h): 0%"
